Among the data in ChEMBL document CHEMBL5726506, “Heterocyclic kinase inhibitors” (2017) are IC50 values, retold here.

Where only a bound is given, the exact number is not on record here.

This assay in a line: Inhibition Assay: Class I PI3-Ks can be either purchased (p110α/p85α, p110β/p85α, p110δ/p85α from Upstate, and p110γ from Sigma) or expressed as previously described (Knight et al., 2004). IC50 values are measured using either a standard TLC assay for lipid kinase activity (described below) or a high-throughput membrane capture assay. Kinase reactions are performed by preparing a reaction mixture containing kinase, inhibitor (2% DMSO final concentration), buffer (25 mM HEPES, pH 7.4, 10 mM MgCl2), and freshly sonicated phosphatidylinositol (100 μg/ml). Reactions are initiated by the addition of ATP containing 10 μCi of γ-32P-ATP to a final concentration 10 or 100 μM and allowed to proceed for 5 minutes at room temperature. For TLC analysis, reactions are then terminated by the addition of 105 l 1N HCl followed by 160 μl CHCl3:MeOH (1:1). The biphasic mixture is vortexed, briefly centrifuged, and the organic phase is transferred to a new tube using a gel loading pipette tip precoated with CHCl3. This extract is spotted on TLC plates and developed for 3-4 hours in a 65:35 solution of n-propanol:1M acetic acid. The TLC plates are then dried, exposed to a phosphorimager screen (Storm, Amersham), and quantitated. For each compound, kinase activity is measured at 10-12 inhibitor concentrations representing two-fold dilutions from the highest concentration tested (typically, 200 μM).

Turning to `CN1CCN(c2nc3ccccc3cc2Cn2nc(-c3cc(O)cc(F)c3)c3c(N)ncnc32)CC1`, the IC50 (as a rule, the concentration at which inhibition is half-maximal) was > 1000 nM.
With `Nc1nc2ccc(-c3nn(Cc4cc5ccccc5nc4-c4ccccc4C(F)(F)F)c4ncnc(N)c34)cc2[nH]1`, the IC50 is > 1000 nM.
